Target: human PDE4D3 (PDE4D) (Homo sapiens (Human), UniProt Q08499)
Experiment: Phosphodiesterase (PDE)4 inhibitory activity evaluation test ([3H]cAMP hydrolysis by PDE4D enzyme solution)
Format: biochemical
Conditions: recombinant human PDE4D3 expressed in COS-7 cells; [3H]cAMP substrate; 10 min at 30° C.; 2% DMSO
From the text: Phosphodiesterase (PDE)4 Inhibitory Activity Evaluation Test
(1) Large Scale Plasmid Preparation
Plasmid containing genes (HPDE4D) coding for human PDE4D3 cDNA (stored in Otsuka America Pharmaceutical, Inc., Maryland Research Laboratories) was transformed in E. coli, cultured on a large scale, and purified using an EndoFree™ Plasmid Maxi Kit (Qiagen).
(2) Abundant Expression and Purification of PDE4D
COS-7 cells derived from African green monkey kidneys were passage cultured in D-MEM media containing 100 units/ml penicillin, 100 μg/ml streptomycin, and 10% FBS. The cells were transfected with the plasmid prepared in (1) above using Lipofectamine™ 2000 (hereinafter referred to as “LF2000”, Invitrogen), following the manufacturer's protocol. The COS-7 cells were inoculated in a 10 cm culture dish on the previous day so as to be 90% confluent on the day of transfection. Culture dishes each containing a plasmid solution (solution A) in which 24 μg of plasmid was diluted in 1.5 ml Opti-MEM I Reduced Serum Medium (Invitrogen) and an LF2000 solution (solution B) in which 60 μl of LF2000 was diluted in 1.5 ml Opti-MEM I Reduced Serum Medium were separately allowed to stand for 5 minutes at room temperature. Solutions A and B were then mixed and the mixture was allowed to stand for 20 minutes at room temperature. The mixture was added to the cultured cells, and incubated at 37° C. (5% CO2) overnight. On the following day, the medium was replaced, and the mixture was further incubated overnight to harvest the cells in the following manner. The cells were washed with PBS (Sigma) once, and 10 ml of a Trypsin-EDTA solution (Sigma) was added to each culture dish. After the solution was distributed to each of the culture dishes, the cells were detached, and the dishes were allowed to stand for about 5 minutes at 37° C. The detached cells from the dishes were suspended in media, collected into centrifuge tubes, and centrifuged at 1200 rpm for 5 minutes at 4° C., and supernatants were removed. The cells were further washed with PBS, and stored at −80° C. KHEM buffer (100 mM Hepes, 50 mM KCl, 10 mM EGTA, 1.92 mM MgCl2, pH 7.4) containing 1 mM DTT, 1 μg/ml antipain, 1 μg/ml aprotinin, 1 μg/ml leupeptin, 1 μg/ml pepstatin A, 157 μg/ml benzamidine, and 120 μg/ml Pefabloc SC was added to the stored cells, and the contents were moved to a glass homogenizer to be homogenized on ice. The cell suspension was centrifuged at 1000 rpm for 5 minutes at 4° C., and the supernatant was further centrifuged at 14000 rpm for one hour. After centrifugation, the supernatant was dispensed into new tubes as PDE4D enzyme solutions, and stored in a deep freezer.
(3) Determination on Dilution Ratio of PDE4D Enzyme Solutions
The PDE4D enzyme solutions prepared in (2) above were dissolved in 20 mM Tris-HCl solution (pH 7.4) to give 10-, 25-, 50-, 100-, 200-, 400-, and 800-fold dilutions of the enzyme solutions. PDE4D activities were measured according to (4) below. The percentage of catalyzed cAMP to total cAMP was calculated, and such a dilution, in which the percentage was between 10% and 30%, was adopted in the inhibitory study below.
(4) Measurement of PDE4D Inhibitory Activity
Necessary amounts of test compounds were weighed, and 100% dimethylsulfoxide (DMSO) was added thereto to adjust the concentration to 10 mM. The solutions were stored in a freezer as stock solutions of each test compound. After being thawed when required, the solutions were diluted 20-fold with 100% DMSO to give a 500 μM concentration. Further, 10-fold serial dilutions were made with 100% DMSO to prepare test compounds of different concentrations. 2 μl of solutions containing one of each of the test compound were separately added into 1.2 ml tubes in which 23 μl of 20 mM Tris-HCl (pH 7.4) had been placed beforehand. […]

Sequence of human PDE4D3 (PDE4D) (Q08499 other isoform, or with tags, fused parts or gaps): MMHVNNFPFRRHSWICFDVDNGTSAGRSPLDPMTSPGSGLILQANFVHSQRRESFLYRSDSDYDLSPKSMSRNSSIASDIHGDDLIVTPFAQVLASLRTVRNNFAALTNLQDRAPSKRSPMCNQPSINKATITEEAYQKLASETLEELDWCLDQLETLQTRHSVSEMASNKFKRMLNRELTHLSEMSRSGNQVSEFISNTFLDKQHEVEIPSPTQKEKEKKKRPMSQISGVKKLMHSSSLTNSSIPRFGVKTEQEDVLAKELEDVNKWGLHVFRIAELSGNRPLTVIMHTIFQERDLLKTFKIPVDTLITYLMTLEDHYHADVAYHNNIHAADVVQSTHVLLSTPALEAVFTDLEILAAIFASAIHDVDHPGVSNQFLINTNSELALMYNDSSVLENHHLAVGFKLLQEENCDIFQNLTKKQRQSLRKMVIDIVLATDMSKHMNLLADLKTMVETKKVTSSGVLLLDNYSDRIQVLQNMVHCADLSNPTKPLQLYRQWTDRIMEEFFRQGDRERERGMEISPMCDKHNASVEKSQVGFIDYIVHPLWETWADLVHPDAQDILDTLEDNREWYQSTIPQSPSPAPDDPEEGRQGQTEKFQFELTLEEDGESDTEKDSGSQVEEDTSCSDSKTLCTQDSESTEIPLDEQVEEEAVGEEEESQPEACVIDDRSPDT

Row | Structure (SMILES) | IC50 [nM]
1 | CCOc1ccc(-c2nc(CCC(=O)c3ncccc3C)co2)cc1OCC(F)F [Example 318, 3-{2-[3-(2,2-difluoroethoxy)-4-ethoxyphenyl]oxazol-4-yl}-1-(3-methylpyridin-2-yl)-propan-1-one] | < 50
2 | COc1ccc(-c2nc(CCC(=O)c3ccccc3OC)co2)cc1OCC1CC1 [Example 170, 3-[2-(3-cyclopropylmethoxy-4-methoxyphenyl)oxazol-4-yl]-1-(2-methoxyphenyl)propan-1-one] | < 50
3 | CCC(CC)Oc1cc(-c2nc(CCC(=O)c3ncccc3C)co2)ccc1OC [Example 312, 3-{2-[3-(1-ethylpropoxy)-4-methoxyphenyl]oxazol-4-yl}-1-(3-methylpyridin-2-yl)propan-1-one] | < 50
4 | CCOc1ccccc1C(=O)NCc1coc(-c2ccc(OC(F)F)c(OCC(F)(F)F)c2)n1 [Example 383, N-{2-[4-difluoromethoxy-3-(2,2,2-trifluoroethoxy)phenyl]-oxazol-4-ylmethyl}-2-ethoxy benzamide] | < 50
5 | CCOc1ccc(-c2nc(CCC(=O)c3ccc(F)cc3OCC)co2)cc1OCC [Example 299, 3-[2-(3,4-diethoxyphenyl)oxazol-4-yl]-1-(2-ethoxy-4-fluorophenyl)propan-1-one] | < 50
6 | CCOc1ccc(-c2nc(CCC(=O)c3ccccc3OCC(F)F)co2)cc1OCC [Example 290, 3-[2-(3,4-diethoxyphenyl)oxazol-4-yl]-1-[2-(2,2-difluoroethoxy)phenyl]propan-1-one] | < 50
7 | CCOc1ccccc1C(=O)CCc1coc(-c2ccc(OC)c(OC(C)C)c2)n1 [Example 111, 1-(2-ethoxyphenyl)-3-[2-(3-isopropoxy-4-methoxyphenyl)oxazol-4-yl]propan-1-one] | < 50
8 | COc1ccc(-c2nc(CNC(=O)c3ncccc3C)co2)cc1OC1Cc2ccccc2C1 [Example 22, N-{2-[3-(indan-2-yloxy)-4-methoxyphenyl]oxazol-4-ylmethyl}-3-methylpicolinamide] | < 50
9 | C=CCOc1cc(-c2nc(CCC(=O)c3ncccc3C)co2)ccc1OC [Example 140, 3-[2-(3-allyloxy-4-methoxyphenyl)oxazol-4-yl]-1-(3-methylpyridin-2-yl)propan-1-one] | < 50
10 | Cc1cccnc1C(=O)CCc1coc(-c2ccc(OC(F)F)c(OC(C)C)c2)n1 [Example 332, 3-[2-(4-difluoromethoxy-3-isopropoxyphenyl)oxazol-4-yl]-1-(3-methylpyridin-2-yl)propan-1-one] | < 50
11 | C=CCOc1cc(-c2nc(CCC(=O)c3ccccc3OC)co2)ccc1OC [Example 174, 3-[2-(3-allyloxy-4-methoxyphenyl)oxazol-4-yl]-1-(2-methoxyphenyl)propan-1-one] | < 50
12 | COc1ccc(-c2nc(CNC(=O)c3ccc(F)cc3OC)co2)cc1OCC1CC1 [Example 42, N-[2-(3-cyclopropylmethoxy-4-methoxyphenyl)oxazol-4-ylmethyl]-4-fluoro-2-methoxybenzamide] | < 50
13 | C=CCOc1ccccc1C(=O)CCc1coc(-c2ccc(OC)c(OC(C)C)c2)n1 [Example 224, 1-(2-allyloxyphenyl)-3-[2-(3-isopropoxy-4-methoxyphenyl)oxazol-4-yl]propan-1-one] | < 50
14 | C=CCOc1cc(-c2nc(CCC(=O)c3ncccc3C)co2)ccc1OC(F)F [Example 330, 3-[2-(3-allyloxy-4-difluoromethoxyphenyl)oxazol-4-yl]-1-(3-methylpyridin-2-yl)propan-1-one] | < 50
15 | C=CCCOc1cc(-c2nc(CCC(=O)c3ncccc3C)co2)ccc1OC(F)F [Example 331, 3-[2-(3-but-3-enyloxy-4-difluoromethoxyphenyl)-oxazol-4-yl]-1-(3-methylpyridin-2-yl)propan-1-one] | < 50
16 | CCOc1cc(-c2nc(CCC(=O)c3ncccc3C)co2)ccc1OC(F)F [Example 333, 3-[2-(4-difluoromethoxy-3-ethoxyphenyl)oxazol-4-yl]-1-(3-methylpyridin-2-yl)propan-1-one] | < 50
17 | COc1ccc(-c2nc(CNC(=O)c3ncccc3C)co2)cc1OCC(F)(F)F [Example 19, N-{2-[4-methoxy-3-(2,2,2-trifluoroethoxy)phenyl]oxazol-4-ylmethyl}-3-methylpicolinamide] | < 50
18 | C=CCOc1cc(-c2nc(CCC(=O)c3ccccc3OCC(F)F)co2)ccc1OC [Example 281, 3-[2-(3-allyloxy-4-methoxyphenyl)oxazol-4-yl]-1-[2-(2,2-difluoroethoxy)phenyl]propan-1-one] | < 50
19 | COc1ccc(-c2nc(CCC(=O)c3ccccc3OC)co2)cc1OC(C)C [Example 169, 3-[2-(3-isopropoxy-4-methoxyphenyl)oxazol-4-yl]-1-(2-methoxyphenyl)propan-1-one] | < 50
20 | CCOc1ccccc1C(=O)CCc1coc(-c2ccc(OC)c(OCCF)c2)n1 [Example 315, 1-(2-ethoxyphenyl)-3-{2-[3-(2-fluoroethoxy)-4-methoxyphenyl]oxazol-4-yl}propan-1-one] | < 50
21 | C=CCCOc1cc(-c2nc(CNC(=O)c3ncccc3C)co2)ccc1OC(F)F [Example 343, N-[2-(3-but-3-enyloxy-4-difluoromethoxyphenyl)oxazol-4-ylmethyl]-3-methylpicolinamide] | < 50
22 | Cc1cccnc1C(=O)NCc1coc(-c2ccc(OC(F)F)c(OCC3CCC3)c2)n1 [Example 345, N-[2-(3-cyclobutylmethoxy-4-difluoromethoxyphenyl)oxazol-4-ylmethyl]-3-methyl picolinamide] | < 50
23 | Cc1cccnc1C(=O)CCc1coc(-c2ccc(OC(F)F)c(OCC3CC3)c2)n1 [Example 328, 3-[2-(3-cyclopropylmethoxy-4-difluoromethoxyphenyl)oxazol-4-yl]-1-(3-methylpyridin-2-yl)propan-1-one] | < 50
24 | CCOc1cc(-c2nc(CCC(=O)c3ccc(F)cc3OCC)co2)ccc1OC [Example 304, 1-(2-ethoxy-4-fluorophenyl)-3-[2-(3-ethoxy-4-methoxyphenyl)oxazol-4-yl]propan-1-one] | < 50
25 | C=CCCOc1cc(-c2nc(CCC(=O)c3ncccc3C)co2)ccc1OC [Example 146, 3-[2-(3-(3-butenyloxy)-4-methoxyphenyl)oxazol-4-yl]-1-(3-methylpyridin-2-yl)propan-1-one] | < 50
26 | COc1ccc(-c2nc(CCC(=O)c3ncccc3C)co2)cc1OCCC1CC1 [Example 153, 3-{2-[3-(2-cyclopropylethoxy)-4-methoxyphenyl]oxazol-4-yl}-1-(3-methylpyridin-2-yl)propan-1-one] | < 50
27 | CCOc1cccnc1C(=O)NCc1coc(-c2ccc(OC)c(OC3CCCC3)c2)n1 [Example 29, N-[2-(3-cyclopentyloxy-4-methoxyphenyl)oxazol-4-ylmethyl]-3-ethoxypicolinamide] | < 50
28 | CCOc1ccccc1C(=O)NCc1coc(-c2ccc(OC)c(OCC(C)C)c2)n1 [Example 14, N-[2-(3-isobutoxy-4-methoxyphenyl)oxazol-4-ylmethyl]-2-ethoxy benzamide] | < 50
29 | COc1ccc(-c2nc(CCC(=O)c3ccccc3OC(C)C)co2)cc1OCC1CC1 [Example 208, 3-[2-(3-cyclopropylmethoxy-4-methoxyphenyl)oxazol-4-yl]-1-(2-isopropoxyphenyl)propan-1-one] | < 50
30 | CCOc1ccccc1C(=O)NCc1coc(-c2ccc(OC(F)F)c(OCC3CC3)c2)n1 [Example 353, N-[2-(3-cyclopropylmethoxy-4-difluoromethoxyphenyl)oxazol-4-ylmethyl]-2-ethoxy benzamide] | < 50
